Assay results published in US11712434B2, “Compound having anti-cancer effect, and preparation method therefor and use thereof” (3D MEDICINES (BEIJING) CO., LTD., priority 2016, dated 2023).

Legend:
Experiment in all cases: Cell proliferation assay (Alamar Blue)
Type in all cases: cell-based
[1] = tested on: 22RV1; conditions: 22RV1 tumor cell line, 6 days culture
Method in brief: (§1)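 Log-phase cells seeded at line-optimised density, compound added after 4 h at 37 °C, 5% CO2, as 9-point 3.16-fold dilutions from 100 or 30 µM top concentration, duplicate wells. After 6 days, AlamarBlue fluorescence (ex 560/em 590 nm); IC50 from four-parameter nonlinear regression of % inhibition.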

[2] = tested on: AN3CA; conditions: AN3CA tumor cell line, 6 days culture
Method in brief: as §1

[3] = tested on: HEPG2; conditions: HEPG2 liver cancer cell line, 6 days culture
Method in brief: as §1

[4] = tested on: HUH6; conditions: HUH6 liver cancer cell line, 6 days culture
Method in brief: as §1

[5] = tested on: JHH1; conditions: JHH1 liver cancer cell line, 6 days culture
Method in brief: as §1

[6] = tested on: JHH2; conditions: JHH2 liver cancer cell line, 6 days culture
Method in brief: as §1

[7] = tested on: JHH6; conditions: JHH6 liver cancer cell line, 6 days culture
Method in brief: as §1

[8] = tested on: JHH7; conditions: JHH7 liver cancer cell line, 6 days culture
Method in brief: as §1

[9] = tested on: K562; conditions: K562 tumor cell line, 6 days culture
Method in brief: as §1

[10] = tested on: LNCAP-clone-FGC; conditions: LNCAP-clone-FGC tumor cell line, 6 days culture
Method in brief: as §1

[11] = tested on: Li-7; conditions: Li-7 liver cancer cell line, 6 days culture
Method in brief: as §1

[12] = tested on: MDA-MB-231; conditions: MDA-MB-231 tumor cell line, 6 days culture
Method in brief: as §1

[13] = tested on: MDA-MB-435S; conditions: MDA-MB-435S tumor cell line, 6 days culture
Method in brief: as §1

[14] = tested on: MFM-223; conditions: MFM-223 tumor cell line, 6 days culture
Method in brief: as §1

[15] = tested on: MG63; conditions: MG63 tumor cell line, 6 days culture
Method in brief: as §1

[16] = tested on: NCI-H1648; conditions: NCI-H1648 tumor cell line, 6 days culture
Method in brief: as §1

[17] = tested on: NCI-H2170; conditions: NCI-H2170 tumor cell line, 6 days culture
Method in brief: as §1

[18] = tested on: NCI-H661; conditions: NCI-H661 tumor cell line, 6 days culture
Method in brief: as §1

[19] = tested on: SK-HEP-1; conditions: SK-HEP-1 liver cancer cell line, 6 days culture
Method in brief: as §1

[20] = tested on: SNU182; conditions: SNU182 liver cancer cell line, 6 days culture
Method in brief: as §1

[21] = tested on: SNU354; conditions: SNU354 liver cancer cell line, 6 days culture
Method in brief: as §1

[22] = tested on: SNU387; conditions: SNU387 liver cancer cell line, 6 days culture
Method in brief: as §1

[23] = tested on: SNU475; conditions: SNU475 liver cancer cell line, 6 days culture
Method in brief: as §1

[24] = tested on: SNU739; conditions: SNU739 liver cancer cell line, 6 days culture
Method in brief: as §1

[25] = tested on: SNU761; conditions: SNU761 liver cancer cell line, 6 days culture
Method in brief: as §1

[26] = tested on: TE-15; conditions: TE-15 tumor cell line, 6 days culture
Method in brief: as §1

[27] = tested on: TE-6; conditions: TE-6 tumor cell line, 6 days culture
Method in brief: as §1

## Cc1ccc(F)c(NC(=O)Nc2ccc(-c3cccc4[nH]nc(NC(=O)CCCCCNC(=O)C[C@H](N)C(=O)N[C@@H](CCC(=O)O)C(=O)O)c34)cc2)c1 [Compound 4]
[1]
  IC50: > 100 µM
[2]
  IC50: 24.9 µM
[3]
  IC50: 54.3 µM
[4]
  IC50: > 100 µM
[5]
  IC50: > 100 µM
[6]
  IC50: > 100 µM
[7]
  IC50: > 100 µM
[8]
  IC50: > 100 µM
[9]
  IC50: > 100 µM
[10]
  IC50: > 100 µM
[11]
  IC50: > 100 µM
[12]
  IC50: > 100 µM
[13]
  IC50: > 100 µM
[14]
  IC50: > 100 µM
[15]
  IC50: > 100 µM
[16]
  IC50: > 100 µM
[17]
  IC50: > 100 µM
[18]
  IC50: > 100 µM
[19]
  IC50: > 100 µM
[20]
  IC50: > 100 µM
[21]
  IC50: > 100 µM
[22]
  IC50: > 100 µM
[23]
  IC50: > 100 µM
[24]
  IC50: > 100 µM
[25]
  IC50: > 100 µM
[26]
  IC50: > 100 µM
[27]
  IC50: > 100 µM

## Cc1ccc(F)c(NC(=O)Nc2ccc(-c3cccc4[nH]nc(NC(=O)C[C@H](N)C(=O)N[C@@H](CCC(=O)N[C@@H](CCC(=O)N[C@@H](CCC(=O)N[C@@H](CCC(=O)O)C(=O)O)C(=O)O)C(=O)O)C(=O)O)c34)cc2)c1 [Compound 2]
[1]; Homo sapiens, 144 h
  IC50: 11.5 µM
[2]; Homo sapiens, AN3-CA, 144 h
  IC50: 0.73 µM
[3]; Homo sapiens, 144 h
  IC50: 3.86 µM
[4]; Homo sapiens, HuH-6, 144 h
  IC50: 79 µM
[5]; 144 h
  IC50: 33.9 µM
[6]; JHH-2, 144 h
  IC50: 88.2 µM
[7]; 144 h
  IC50: 10.9 µM
[8]; 144 h
  IC50: 4.26 µM
[9]; Homo sapiens, 144 h
  IC50: 29.5 µM
[10]; Homo sapiens, 144 h
  IC50: 26.5 µM
[11]; 144 h
  IC50: 19.5 µM
[12]; Homo sapiens, 144 h
  IC50: 12.4 µM
[13]; Homo sapiens, 144 h
  IC50: 18.6 µM
[14]; Homo sapiens, 144 h
  IC50: 6.93 µM
[15]; Homo sapiens, MG-63, 144 h
  IC50: 5.49 µM
[16]; Homo sapiens, 144 h
  IC50: 21.5 µM
[17]; Homo sapiens, 144 h
  IC50: 7.69 µM
[18]; Homo sapiens, 144 h
  IC50: 36.8 µM
[19]; Homo sapiens, SK-HEP1, 144 h
  IC50: 31 µM
[20]; Homo sapiens, SNU-182, 144 h
  IC50: 46.2 µM
[21]; Homo sapiens, SNU-354, 144 h
  IC50: 8.62 µM
[22]; Homo sapiens, SNU-387, 144 h
  IC50: 47.9 µM
[23]; Homo sapiens, SNU-475, 144 h
  IC50: 11.2 µM
[24]; SNU-739, 144 h
  IC50: 11.3 µM
[25]; 144 h
  IC50: 19.5 µM
[26]; Homo sapiens, 144 h
  IC50: 7.29 µM
[27]; Homo sapiens, 144 h
  IC50: 27.6 µM
